From patent US11744861B2, “Compositions and methods for selective elimination and replacement of hematopoietic stem cells” (Poseida Therapeutics, Inc., priority 2017, dated 2023)

How the values were obtained:
[1] = system: Human pan T-cells with piggyBac integrated iC9; assay: iC9 safety switch test, viability by flow cytometry using 7-AAD; format: cell-based; conditions: iC9-containing modified T cells; 24 hours incubation
Description: Human pan T-cells were nucleofected using an Amaxa 4D nucleofector with one of four piggyBac transposons. Modified T cells receiving the “mock” condition were nucleofected with an empty piggyBac transposon. Modified T cells received either a piggyBac […] containing a therapeutic agent alone (a sequence encoding a CARTyrin) or a piggyBac […] containing an integrated iC9 sequence and a therapeutic agent (a sequence encoding a CARTyrin). To test the iC9 safety switch, each of the four modified T cells were incubated for 24 hours with 0, 0.1 nM, 1 nM, 10 nM, 100 nM or 1000 nM AP1903 (an induction agent for […]). Viability was assessed by flow cytometry using 7-aminoactinomycin D (7-AAD), a fluorescent intercalator, as a marker for cells undergoing apoptosis. Cell viability was assessed at day 12 (see FIG. 2). […] Moreover, cell viability was assessed at day 19 (see FIG. 3). […] A quantification of the aggregated results was performed and is provided in FIG. 4, showing the significant impact of the iC9 safety switch on the percent cell viability as a function of the concentration of the induction agent (AP1903) of the iC9 switch for each modified cell type at either day 12 (FIG. 2 and left graph) or day 19 (FIG. 3 and right graph). […] Furthermore, the iC9 safety switch may be functionally expressed as part of a tricistronic vector.

[2] = system: CARTyrin-expressing cells; assay: in vitro efficacy of iC9 safety switch with AP1903 (relative viability, live cells per bead events); format: cell-based, Human
Procedure: FIGS. 2A-2B is a series of graphs depicting results of evaluating the in vitro efficacy of an inducible proapoptotic polypeptide (iC9 safety switch) of the disclosure using the exemplary induction agent AP1903. Cells expressing a CARTyrin of the disclosure were A) thawed and rested overnight or B) activated using ImmunoCult™ Human CD3/CD28/CD2 T cell Activator reagent for 5 days were treated with AP1903 for the indicated length of time and concentrations. All data points were collected in triplicate and relative viability determined by dividing the number of live cells in the treatment group by the average number of live cells in the no treatment group per 1,500 bead events collected. Greater than 80% of the non-activated CARTyrin-expressing cells were eliminated from the culture at 24 hours across all dose levels tested (FIG. 1). There was no observable difference between the 24 hour and 48 hour time point in the non-activated cells. In the activated CARTyrin-expressing cells however, both a dose response as well as temporal response were observed. At 12 hours post AP1903 administration, >65% of the cells were killed by concentrations as low as 1 nM. […] Expression of the CARTyrin is be increased upon activation of the cells, and provided the vector design; the expression of iC9 could also increase. Therefore, an activated cell may express higher levels of iC9 making it more sensitive to AP1903. In many embodiments, the activated cells will be the target if and when employing the safety switch.

CC[C@H](C(=O)N1CCCC[C@H]1C(=O)O[C@H](CCc1ccc(OC)c(OC)c1)c1cccc(OCC(=O)NCCNC(=O)COc2cccc([C@@H](CCc3ccc(OC)c(OC)c3)OC(=O)[C@@H]3CCCCN3C(=O)[C@@H](CC)c3cc(OC)c(OC)c(OC)c3)c2)c1)c1cc(OC)c(OC)c(OC)c1 [AP1903]
concentration at which apoptosis is induced (lowest of the study) [1]: 0.1 nM
cells killed ([2]; activated CARTyrin-expressing cells, 12 hours post AP1903, concentrations as low as 1 nM): > 65%
cells killed ([2]; activated cells, 48 hours): > 95%
cells eliminated from the culture ([2]; non-activated CARTyrin-expressing cells, 24 hours, all dose levels tested): Greater than 80%
